Assay results taken from ChEMBL document CHEMBL3046755, “Synthesis and Herbicidal Activity of N-Alkyl-N-(substituted benzyl)-4-halo-2-alkenamides” (1999).
Activity calls are given as the source filed them. The rule behind the calls is not given here.

What was measured:
Echinochloa oryzicola [1] = assay: Light dependent herbicidal activity against Echinochloa oryzicola seedlings assessed as inhibition of seedlings growth at 10 ppm measured after 6 days post compound application under greenhouse conditions at 25 +/- 2 degC with day light; assay type: functional, organism-based
Echinochloa oryzicola [2] = assay: Herbicidal activity against Echinochloa oryzicola seedlings assessed as induction of seedlings damage measured after 3 weeks post compound application through paddy water; assay type: functional
Echinochloa oryzicola [3] = assay: Light dependent herbicidal activity against Echinochloa oryzicola seedlings assessed as inhibition of seedlings growth at 10 ppm measured after 6 days post compound application under greenhouse conditions at 25 +/- 2 degC under dark conditions; assay type: functional, organism-based
Echinochloa oryzicola [4] = assay: Potency index, ratio of ED90 for chlomethoxyfen to ED90 for test compound for herbicidal activity against Echinochloa oryzicola seedling; assay type: functional

## CC(Cl)/C=C/C(=O)N(Cc1ccc(Cl)c(OS(C)(=O)=O)c1)CC(C)C (racemic)
Echinochloa oryzicola [1]
  growth inhibition (GI): Active
Echinochloa oryzicola [2]
  ED90: 31 gAi/ha

## CC(=O)Nc1ccc(CN(CC(C)C)C(=O)/C=C/C(C)Cl)cc1 (racemic)
Echinochloa oryzicola [1]
  growth inhibition (GI): Active
Echinochloa oryzicola [2]
  ED90: >5000 gAi/ha

## CCC(C)N(Cc1ccc(Cl)cc1)C(=O)/C=C/C(C)Cl (racemic)
Echinochloa oryzicola [1]
  growth inhibition (GI): Active
Echinochloa oryzicola [2]
  ED90: 375 gAi/ha

## CC(Br)/C=C/C(=O)N(Cc1ccc(Cl)cc1)CC(C)C (racemic)
Echinochloa oryzicola [1]
  growth inhibition (GI): Active
Echinochloa oryzicola [2]
  ED90: 125 gAi/ha

## CCCOCCN(C(=O)CCl)c1c(CC)cccc1CC
Echinochloa oryzicola [3]
  growth inhibition (GI): Active

## CCOc1cc(Oc2ccc(C(F)(F)F)cc2Cl)ccc1[N+](=O)[O-]
Echinochloa oryzicola [1]
  growth inhibition (GI): Active

## C=CCN(Cc1ccc(Cl)cc1)C(=O)/C=C/C(C)Cl (racemic)
Echinochloa oryzicola [1]
  growth inhibition (GI): Active
Echinochloa oryzicola [2]
  ED90: 375 gAi/ha

## CC(Cl)/C=C/C(=O)N(CCC(C)C)Cc1ccc(Cl)cc1 (racemic)
Echinochloa oryzicola [1]
  growth inhibition (GI): Active
Echinochloa oryzicola [2]
  ED90: <16 gAi/ha

## CCCN(Cc1ccc(Cl)cc1)C(=O)/C=C/C(C)Cl (racemic)
Echinochloa oryzicola [1]
  growth inhibition (GI): Active
Echinochloa oryzicola [2]
  ED90: 125 gAi/ha

## COc1ccc(Cl)cc1CN(CC(C)C)C(=O)/C=C/C(C)Cl (racemic)
Echinochloa oryzicola [1]
  growth inhibition (GI): Active
Echinochloa oryzicola [2]
  ED90: >1000 gAi/ha

## CC(Cl)/C=C/C(=O)N(Cc1ccc(Cl)cc1)C(C)(C)C (racemic)
Echinochloa oryzicola [1]
  growth inhibition (GI): Active
Echinochloa oryzicola [2]
  ED90: >5000 gAi/ha

## CC(Cl)/C=C/C(=O)N(Cc1cc(OS(C)(=O)=O)ccc1Cl)CC(C)C (racemic)
Echinochloa oryzicola [1]
  growth inhibition (GI): Active
Echinochloa oryzicola [2]
  ED90: 31 gAi/ha

## CCCOc1cc(CN(CC(C)C)C(=O)/C=C/C(C)Cl)ccc1Cl (racemic)
Echinochloa oryzicola [1]
  growth inhibition (GI): Active
Echinochloa oryzicola [2]
  ED90: 31 gAi/ha

## CC(Cl)/C=C/C(=O)N(Cc1ccccc1)CC(C)C (stereo not given)
Echinochloa oryzicola [1]
  growth inhibition (GI): Active
Echinochloa oryzicola [2]
  ED90: 125 gAi/ha

## CC(Cl)/C=C/C(=O)N(Cc1ccc(Cl)cc1)C(C)C (racemic)
Echinochloa oryzicola [1]
  growth inhibition (GI): Active
Echinochloa oryzicola [2]
  ED90: 250 gAi/ha

## CC(C)CN(Cc1ccc(Cl)cc1)C(=O)/C=C/CBr
Echinochloa oryzicola [2]
  ED90: >4000 gAi/ha

## CCCC(Cl)/C=C/C(=O)N(Cc1ccc(Cl)cc1)CC(C)C (racemic)
Echinochloa oryzicola [2]
  ED90: 500 gAi/ha

## CCCCC(Br)/C=C/C(=O)N(Cc1ccc(Cl)cc1)CC(C)C (racemic)
Echinochloa oryzicola [2]
  ED90: 2500 gAi/ha

## CC(Cl)/C=C/C(=O)N(Cc1ccc(S(C)(=O)=O)cc1)CC(C)C (racemic)
Echinochloa oryzicola [1]
  growth inhibition (GI): Active
Echinochloa oryzicola [2]
  ED90: >1000 gAi/ha

## CC(Cl)/C=C/C(=O)N(Cc1ccc(Cl)cc1Cl)CC(C)C (racemic)
Echinochloa oryzicola [1]
  growth inhibition (GI): Active
Echinochloa oryzicola [2]
  ED90: 125 gAi/ha

## CC(Cl)/C=C/C(=O)N(Cc1ccccc1C#N)CC(C)C (racemic)
Echinochloa oryzicola [1]
  growth inhibition (GI): Active
Echinochloa oryzicola [2]
  ED90: 250 gAi/ha

## CC(Cl)/C=C/C(=O)N(Cc1cc(Cl)c(C#N)cc1Br)CC(C)C (racemic)
Echinochloa oryzicola [1]
  growth inhibition (GI): Active
Echinochloa oryzicola [2]
  ED90: <16 gAi/ha

## CCCOc1ccc(Cl)c(CN(CC(C)C)C(=O)/C=C/C(C)Cl)c1 (racemic)
Echinochloa oryzicola [1]
  growth inhibition (GI): Active
Echinochloa oryzicola [2]
  ED90: 62 gAi/ha

## CC(Cl)/C=C/C(=O)N(Cc1ccc(Cl)cc1)C1CCCCCC1 (racemic)
Echinochloa oryzicola [1]
  growth inhibition (GI): Active
Echinochloa oryzicola [2]
  ED90: 62 gAi/ha

## Cc1ccc(CN(CC(C)C)C(=O)/C=C/C(C)Cl)cc1 (racemic)
Echinochloa oryzicola [1]
  growth inhibition (GI): Active
Echinochloa oryzicola [2]
  ED90: 125 gAi/ha

## CCOC(=O)c1cc(CN(CC(C)C)C(=O)/C=C/C(C)Cl)ccc1Cl (racemic)
Echinochloa oryzicola [1]
  growth inhibition (GI): Active
Echinochloa oryzicola [2]
  ED90: <16 gAi/ha

## CC(Cl)/C=C/C(=O)N(Cc1ccc(C(F)(F)F)cc1)CC(C)C (racemic)
Echinochloa oryzicola [1]
  growth inhibition (GI): Active
Echinochloa oryzicola [2]
  ED90: 31 gAi/ha

## CSc1ccc(CN(CC(C)C)C(=O)/C=C/C(C)Cl)cc1 (racemic)
Echinochloa oryzicola [1]
  growth inhibition (GI): Active
Echinochloa oryzicola [2]
  ED90: 250 gAi/ha

## CC(Cl)/C=C/C(=O)N(Cc1ccc(C=O)cc1)CC(C)C (racemic)
Echinochloa oryzicola [1]
  growth inhibition (GI): Active
Echinochloa oryzicola [2]
  ED90: 1000 gAi/ha

## CCCCCCC(Br)/C=C/C(=O)N(Cc1ccc(Cl)cc1)CC(C)C (racemic)
Echinochloa oryzicola [2]
  ED90: 5000 gAi/ha

## CC(Cl)/C=C/C(=O)N(C)Cc1ccc(Cl)cc1 (racemic)
Echinochloa oryzicola [1]
  growth inhibition (GI): Active
Echinochloa oryzicola [2]
  ED90: 2000 gAi/ha

## CC(Cl)/C=C/C(=O)N(Cc1ccc(C#N)cc1)CC(C)C (mixture of isomers)
Echinochloa oryzicola [1]
  growth inhibition (GI): Active
Echinochloa oryzicola [2]
  ED90: 16 gAi/ha

## CCC(Br)/C=C/C(=O)N(Cc1ccc(Cl)cc1)CC(C)C (racemic)
Echinochloa oryzicola [2]
  ED90: 125 gAi/ha

## COc1cc(CN(CC(C)C)C(=O)/C=C/C(C)Cl)ccc1C#N (racemic)
Echinochloa oryzicola [1]
  growth inhibition (GI): Active
Echinochloa oryzicola [2]
  ED90: 16 gAi/ha

## COc1ccc(Cl)c(CN(CC(C)C)C(=O)/C=C/C(C)Cl)c1 (racemic)
Echinochloa oryzicola [1]
  growth inhibition (GI): Active
Echinochloa oryzicola [2]
  ED90: 31 gAi/ha

## CC(Cl)/C=C/C(=O)N(Cc1ccc(Cl)cc1OS(C)(=O)=O)CC(C)C (racemic)
Echinochloa oryzicola [1]
  growth inhibition (GI): Active
Echinochloa oryzicola [2]
  ED90: 500 gAi/ha

## CCOC(=O)c1ccc(CN(CC(C)C)C(=O)/C=C/C(C)Cl)cc1 (racemic)
Echinochloa oryzicola [1]
  growth inhibition (GI): Active
Echinochloa oryzicola [2]
  ED90: 1000 gAi/ha

## CC(O)/C=C/C(=O)N(Cc1ccc(Cl)cc1)CC(C)C (racemic)
Echinochloa oryzicola [1]
  growth inhibition (GI): Active
Echinochloa oryzicola [2]
  ED90: >5000 gAi/ha

## CCCC(Br)/C=C/C(=O)N(Cc1ccc(Cl)cc1)CC(C)C (racemic)
Echinochloa oryzicola [2]
  ED90: 250 gAi/ha

## COc1cc(CN(CC(C)C)C(=O)/C=C/C(C)Cl)ccc1Cl (racemic)
Echinochloa oryzicola [1]
  growth inhibition (GI): Active
Echinochloa oryzicola [2]
  ED90: 16 gAi/ha

## CC(I)/C=C/C(=O)N(Cc1ccc(Cl)cc1)CC(C)C (racemic)
Echinochloa oryzicola [1]
  growth inhibition (GI): Active
Echinochloa oryzicola [2]
  ED90: 250 gAi/ha

## CC(Cl)/C=C/C(=O)N(Cc1ccc(Cl)cc1)CC(C)C (racemic)
Echinochloa oryzicola [1]
  growth inhibition (GI): Active
Echinochloa oryzicola [2]
  ED90: 16 gAi/ha
Echinochloa oryzicola [4]
  Ratio: 10

## CC(Cl)/C=C/C(=O)N(Cc1ccc(C(N)=O)cc1)CC(C)C (racemic)
Echinochloa oryzicola [1]
  growth inhibition (GI): Active
Echinochloa oryzicola [2]
  ED90: 500 gAi/ha

## CCCCCCCCC(Br)/C=C/C(=O)N(Cc1ccc(Cl)cc1)CC(C)C (racemic)
Echinochloa oryzicola [2]
  ED90: >5000 gAi/ha

## CC(Cl)/C=C/C(=O)N(Cc1ccc(C(=O)O)cc1)CC(C)C (racemic)
Echinochloa oryzicola [1]
  growth inhibition (GI): Active
Echinochloa oryzicola [2]
  ED90: >5000 gAi/ha

## CC(Cl)/C=C/C(=O)N(Cc1cc(Cl)ccc1OS(C)(=O)=O)CC(C)C (racemic)
Echinochloa oryzicola [1]
  growth inhibition (GI): Active
Echinochloa oryzicola [2]
  ED90: >1000 gAi/ha

## CC(Cl)/C=C/C(=O)N(Cc1ccc(C#N)cc1Cl)CC(C)C (mixture of isomers)
Echinochloa oryzicola [1]
  growth inhibition (GI): Active
Echinochloa oryzicola [2]
  ED90: <16 gAi/ha

## COc1cc(Cl)ccc1CN(CC(C)C)C(=O)/C=C/C(C)Cl (racemic)
Echinochloa oryzicola [1]
  growth inhibition (GI): Active
Echinochloa oryzicola [2]
  ED90: 500 gAi/ha

## CC(Cl)/C=C/C(=O)N(Cc1ccc(Cl)c([N+](=O)[O-])c1)CC(C)C (racemic)
Echinochloa oryzicola [1]
  growth inhibition (GI): Active
Echinochloa oryzicola [2]
  ED90: 31 gAi/ha

## COc1cc(Oc2ccc(Cl)cc2Cl)ccc1[N+](=O)[O-] [CHLOMETHOXYFEN]
Echinochloa oryzicola [2]
  ED90: 250 gAi/ha

## CC(Cl)/C=C/C(=O)N(Cc1ccc(Cl)cc1)C1CCCCC1 (racemic)
Echinochloa oryzicola [1]
  growth inhibition (GI): Active
Echinochloa oryzicola [2]
  ED90: 31 gAi/ha

## CC(Cl)/C=C/C(=O)N(Cc1cccc(C#N)c1)CC(C)C (racemic)
Echinochloa oryzicola [1]
  growth inhibition (GI): Active
Echinochloa oryzicola [2]
  ED90: 500 gAi/ha

## CCCCCCCCN(Cc1ccc(Cl)cc1)C(=O)/C=C/C(C)Cl (racemic)
Echinochloa oryzicola [1]
  growth inhibition (GI): Active
Echinochloa oryzicola [2]
  ED90: >5000 gAi/ha

## CCCCN(Cc1ccc(Cl)cc1)C(=O)/C=C/C(C)Cl (racemic)
Echinochloa oryzicola [1]
  growth inhibition (GI): Active
Echinochloa oryzicola [2]
  ED90: 31 gAi/ha

## CC(Cl)/C=C/C(=O)N(Cc1ccc([N+](=O)[O-])cc1)CC(C)C (racemic)
Echinochloa oryzicola [1]
  growth inhibition (GI): Active
Echinochloa oryzicola [2]
  ED90: 250 gAi/ha

## CCC(Cl)/C=C/C(=O)N(Cc1ccc(Cl)cc1)CC(C)C (racemic)
Echinochloa oryzicola [2]
  ED90: 16 gAi/ha

## CC(C)CN(Cc1ccc(Cl)cc1)C(=O)/C=C/C(Br)C(C)C (racemic)
Echinochloa oryzicola [2]
  ED90: 250 gAi/ha

## CCN(Cc1ccc(Cl)cc1)C(=O)/C=C/C(C)Cl (racemic)
Echinochloa oryzicola [1]
  growth inhibition (GI): Active
Echinochloa oryzicola [2]
  ED90: 250 gAi/ha
